In the NIST ThermoML archive (doi:10.1016/j.fluid.2014.12.036):
± gives the expanded uncertainty stated by the source.

Conditions: Crystal; visual observation

Normal melting temperature [°C] | Structure (SMILES)
18.4 ± 0.4 | CCCCCCCCCCCCCCCC [hexadecane]
28.5 ± 0.4 | CCCCCCCCCCCCCCCCCC [octadecane]
6.2 ± 0.4 | CCCCCCCCCCCCCC [tetradecane]
